For 19 molecules, IC50 results are on record in patent publication EP3400938B1, “NOVEL N-(1,2,3-TRIAZOLMETHYL)ISATIN AND N-(1,2,3-TRIAZOLMETHYL)-3-HYDROXY-3-ARYLOXINDOLES WITH CYTOTOXIC AND ANTI-TUMOR ACTIVITY” (Universidade de Évora, priority 2017, dated 2018).

As usually defined, the IC50 is the concentration that inhibits the measured activity by half.

Like-named read-outs stand apart in the source and are kept apart here. Where only a bound is given, the exact number is not on record here.

One experiment relates to SU-DHL-2. Kind of experiment: 72 h MTT proliferation assay on lymphoma cell lines (SU-DHL-2). It is filed as cell-based. Conditions: SU-DHL-2 (ABC-DLBCL), 72h exposure time, read-out: ABC-DLBC cell lines IC50, SU-DHL-2. As to the method:
(§1) A set of ten compounds was tested against four lymphoma cell lines belonging to Germinal Center B-cell-like Diffuse Large B-Cell lymphoma, GCB-DLBCL and Activated B-Cell-like Diffuse Large B-Cell lymphoma, ABC-DLBCL (Table 3). Compounds were tested in triplicates as single agents, for 72 hours by using a large range of concentrations. […] In particular, ISATIN-BENZYL is the most promising one reaching IC50s of 1 and 5 µM in the OCI-LY-10 and SU-DHL-2 cell lines (Table 3). Table 3. IC50 values obtained from MTT assay with a 72h exposure time on lymphoma cell lines.
(§2) 72 h MTT assay on lymphoma cell lines.
(§3) Compounds were dissolved in dimethyl sulphoxide (DMSO) to obtain a stock concentration of 20 mM.
(§4) Cell lines. The panel of lymphoma cell lines comprised models derived from diffuse large B-cell lymphoma (n. 4) cell lines derived from DLBCL of the germinal center B-cell type (GCB-DLBCL), such as VAL and DOHH-2, and derived of the activated B-cell type (ABC-DLBCL) such as OCI-LY-10 and SU-DHL-2.
(§5) Cells were seeded in 96-well plates (non-tissue culture treated) at a density of 10,000 cells for all cell lines. Each compound was dissolved in dimethyl sulphoxide (DMSO). For treatment of cells, compounds were serially diluted in the appropriate tissue culture medium, at a range of 20 µM - 19 nM following a 1:2 dilution factor and added to cells (in three replicates). Cells were incubated for 72 hours at 37 °C, 5% CO2. DMSO alone was added to negative control (untreated) cells. Wells containing medium only were included on each plate and served as blanks for absorbance readings. MTT (Sigma-Aldrich Chemie GmbH, Buchs, Switzerland) was prepared as a 5 mg/ml stock in PBS and filter-sterilized. MTT solution (22µL) was added to each well and tissue culture plates were incubated at 37°C for 4 hours. Cells were then lysed with 25% SDS lysis buffer and absorbance was read at 570 nm using an AD340 plate reader (Beckman Coulter International SA, Switzerland). Absorbance values were expressed in percentage of proliferating cells in comparison with control cells (control corresponds to 100%).

Experiment [1] has as its system SW480 colon adenocarcinoma cells. Kind of experiment: 24 h MTT cytotoxicity assay, SW480 cell line. Format: cell-based. The note with it: 24h exposure time. As to the method: One of the main strategies for the treatment of cancer is chemotherapy (De Santis et al. 2014). There are two main factors that made the development of new chemotherapeutic agents crucial: the side effects of the current anticancer drugs used in the clinic and the appearance of tumour cell resistance. A first step facing at tackling this challenging goal is the evaluation of the cytotoxic activity of the new synthesized drugs. In our case, cytotoxicity was evaluated by means of the antiproliferative assay MTT, which is a high-throughput method widely used for the screening of new drugs that is based on the ability of the mitochondrial dehydrogenases to reduce a water soluble yellow dye, namely 3-(4,5-dimethylthiazol-2-yl)-2,5-diphenyl tetrazolium bromide, to form a water insoluble blue formazan (McCauley et al., 2013). […] The best inhibition was obtained with (S)-2 (Table 2, entry 2). Overall the (S) series gave better inhibition results. Table 2 IC50 values obtained from MTT assay with a 24h exposure time
Biological Screening Studies 24 h MTT Cytototoxicity Assay - SW480 cell line
Approximately 5 × 10^3 SW480 colon adenocarcinoma cells were cultured in 200 µl culture medium per well (DMEM medium), supplemented with 10% newborn calf serum and 1% amphotericin-penicillin-streptomycin solution in 96-well plates and incubated at 37 °C under a 5% CO2 atmosphere. The cells were grown for 24h and then exposed to different concentrations of the tested drugs (dissolved in culture medium) for 24h. Hydrogen peroxide was used as a positive control. The cells were washed with the culture medium, incubated with MTT (500 µg/ml) for a further period of 3 hours. At the end of the incubation, the medium was removed, then carefully washed with PBS and 200 µl DMSO were added to each well. Absorbance was read at 570 nm in a microplate reader. Four replicates per dose were included. The IC50 values, that is, the concentrations which produced 50% inhibition of cell viability were calculated from MTT data using the GraphPadPrism Software Inc. (version 6.01) (USA).

The test system of a further experiment is DOHH-2. Kind of experiment: 72 h MTT proliferation assay on lymphoma cell lines (DOHH-2). It is filed as cell-based. The note with it: DOHH-2 (GCB-DLBCL), 72h exposure time, read-out: GCB-DLBC cell lines IC50, DOHH-2. As to the method: as §1, §2, §3, §4, §5
(Formazan colour is commonly taken as a measure of viable cells.)

A further experiment relates to VAL. Kind of experiment: 72 h MTT proliferation assay on lymphoma cell lines (VAL). Conditions: VAL (GCB-DLBCL), 72h exposure time, read-out: GCB-DLBC cell lines IC50, VAL. It is filed as cell-based. How it is done: as §1, §2, §3, §4, §5
In another experiment the test system is OCI-LY-10. Kind of experiment: 72 h MTT proliferation assay on lymphoma cell lines (OCI-LY-10). It is filed as cell-based. The note with it: 72h exposure time, read-out: ABC-DLBC cell lines IC50, OCI-LY-10. As to the method: as §1, §2, §3, §4, §5
The test system of experiment [2] is SW480 colon adenocarcinoma cells. The note with it: bench-mark value from Xu et al. 2003, SW480; cited from earlier work.
Where [3] appears, read: Homo sapiens, OCI-Ly10, OCI-LY-10 (ABC-DLBCL).

As for `O=C1N(Cc2cn(Cc3ccccc3)nn2)c2ccc(Br)cc2C1(O)c1ccccc1` [(S) -7, 1-((1-Benzyl-1H-1,2,3-triazol-4-yl)methyl)-5-bromo-3-hydroxy-3-phenylindolin-2-one], the IC50 with SU-DHL-2 (Homo sapiens, SU-DHL-2, 72 h) was 19 µM; in experiment [1] it was 34.1 µM; in the experiment with DOHH-2 (Homo sapiens), 19 µM; in the experiment with VAL it was greater than 20 µM; in the experiment on OCI-LY-10 (setting [3]), greater than 20 µM.

As to `CC(C)[C@H]1CC[C@H](C)C[C@H]1n1cc(CN2C(=O)C(=O)c3ccccc32)nn1` [ISATIN-BENZYL, 1-((1-((1R,2R,5S)-2-Isopropyl-5-methylcyclohexyl)-1H-1,2,3-triazol-4-yl)methyl)indoline-2,3-dione], the IC50 with SU-DHL-2 (Homo sapiens) is 5 µM; in experiment [1] (Homo sapiens), 84.4 µM; in the experiment with DOHH-2 (Homo sapiens), greater than 20 µM; with VAL it was greater than 20 µM; with OCI-LY-10 (setting [3]) it was 1 µM.

`COc1ccc(C2(O)C(=O)N(Cc3cn(Cc4ccccc4)nn3)c3ccccc32)cc1` [(S) -4, 1-((1-Benzyl-1H-1,2,3-triazol-4-yl)methyl)-3-hydroxy-3-(4-methoxyphenyl)indolin-2-one]: inhibition in experiment [1] was half-maximal at 48.9 µM (IC50).

In experiment [1], `O=C1N(Cc2cn(Cc3ccccc3)nn2)c2ccccc2C1(O)c1cccc(O)c1` [(R) -6, 1-((1-Benzyl-1H-1,2,3-triazol-4-yl)methyl)-3-hydroxy-3-(3-hydroxyphenyl)indolin-2-one] returned an IC50 of 210 µM.

In the case of `O=C1N(Cc2cn(Cc3ccccc3)nn2)c2ccccc2C1(O)c1ccc2ccccc2c1` [(S) -2, 1-((1-Benzyl-1H-1,2,3-triazol-4-yl)methyl)-3-hydroxy-3-(naphthalen-2-yl)indolin-2-one], the IC50 is 19 µM in the experiment with SU-DHL-2; 12.8 µM in experiment [1]; greater than 20 µM with DOHH-2; greater than 20 µM in the experiment on VAL; greater than 20 µM in the experiment with OCI-LY-10 (OCI-LY-10 (ABC-DLBCL)).

For the molecule `O=C1N(Cc2cn(Cc3ccccc3)nn2)c2ccccc2C1(O)c1ccc2ccccc2c1` [(R) -2, 1-((1-Benzyl-1H-1,2,3-triazol-4-yl)methyl)-3-hydroxy-3-(naphthalen-2-yl)indolin-2-one], the IC50 in the experiment with SU-DHL-2 (Homo sapiens, SU-DHL-2, 72 h) was greater than 20 µM; in experiment [1] (Homo sapiens, SW480, 24 h) it was 18.6 µM; with DOHH-2 (Homo sapiens) it was greater than 20 µM; in the experiment with VAL, greater than 20 µM; in the experiment on OCI-LY-10 (setting [3]), greater than 20 µM.

`O=C1N(Cc2cn(Cc3ccccc3)nn2)c2ccccc2C1(O)c1ccccc1` [(R) -1, 1-((1-Benzyl-1H-1,2,3-triazol-4-yl)methyl)-3-hydroxy-3-phenylindolin-2-one]: the IC50 in the experiment on SU-DHL-2 (Homo sapiens, SU-DHL-2, 72 h) is greater than 20 µM; in experiment [1] (Homo sapiens, SW480, 24 h), 82.6 µM; in the experiment with DOHH-2 (Homo sapiens), greater than 20 µM; in the experiment on VAL, greater than 20 µM; in the experiment on OCI-LY-10 (setting [3]), greater than 20 µM.

In the case of `O=C1N(Cc2cn(Cc3ccccc3)nn2)c2ccccc2C1(O)c1cccc(O)c1` [(S) -6, 1-((1-Benzyl-1H-1,2,3-triazol-4-yl)methyl)-3-hydroxy-3-(3-hydroxyphenyl)indolin-2-one], in experiment [1], 52.8 µM corresponded to half-maximal inhibition (IC50).

Consider `COc1ccc(C2(O)C(=O)N(Cc3cn(Cc4ccccc4)nn3)c3ccccc32)cc1` [(R) -4, 1-((1-Benzyl-1H-1,2,3-triazol-4-yl)methyl)-3-hydroxy-3-(4-methoxyphenyl)indolin-2-one], for which, in experiment [1] (Homo sapiens, SW480, 24 h), the IC50 was 76.4 µM.

On to `O=C1C(=O)N(Cc2cn(Cc3ccccc3)nn2)c2ccccc21` [ISATIN-MENTHOL, 1-((1-Benzyl-1H-1,2,3-triazol-4-yl)methyl)indoline-2,3-dione], for which the IC50 was 15 µM in the experiment on SU-DHL-2 (Homo sapiens); 13.7 µM in experiment [1] (Homo sapiens); greater than 20 µM in the experiment with DOHH-2 (Homo sapiens); greater than 20 µM in the experiment on VAL; 7 µM in the experiment with OCI-LY-10 (setting [3]).

In turn, `CCCCn1cc(CN2C(=O)C(O)(c3ccccc3)c3ccccc32)nn1` [(S) -9, 1-((1-Butyl-1H-1,2,3-triazol-4-yl)methyl)-3-hydroxy-3-phenylindolin-2-one] gave an IC50 in experiment [1] (Homo sapiens, SW480, 24 h) greater than 200 µM.

As for `Cc1ccc(C2(O)C(=O)N(Cc3cn(Cc4ccccc4)nn3)c3ccccc32)cc1` [(S) -8, 1-((1-Benzyl-1H-1,2,3-triazol-4-yl)methyl)-3-hydroxy-3-p-tolylindolin-2-one], the IC50 in experiment [1] (Homo sapiens, SW480, 24 h) is greater than 200 µM.

For `O=C1N(Cc2cn(Cc3ccccc3)nn2)c2ccccc2C1(O)c1ccc(F)cc1` [(R) -3, 1-((1-Benzyl-1H-1,2,3-triazol-4-yl)methyl)-3-(4-fluorophenyl)-3-hydroxyindolin-2-one], the IC50 in the experiment with SU-DHL-2 (Homo sapiens, SU-DHL-2, 72 h) is greater than 20 µM; in experiment [1] (Homo sapiens, SW480, 24 h) it was 49.1 µM; in the experiment with DOHH-2 (Homo sapiens) it was greater than 20 µM; with VAL, greater than 20 µM; with OCI-LY-10 (setting [3]), greater than 20 µM.

`O=C1N(Cc2cn(Cc3ccccc3)nn2)c2ccccc2C1(O)c1ccsc1` [(S) -5, 1-((1-Benzyl-1H-1,2,3-triazol-4-yl)methyl)-3-hydroxy-3-(thiophen-3-yl)indolin-2-one]: the IC50 in experiment [1] came to 33 µM.

As for `O=C1N(Cc2cn(Cc3ccccc3)nn2)c2ccccc2C1(O)c1ccccc1` [(S) -1, 1-((1-Benzyl-1H-1,2,3-triazol-4-yl)methyl)-3-hydroxy-3-phenylindolin-2-one], in experiment [1], half-maximal inhibition (IC50) was put at 63 µM.

`O=C1N(Cc2cn(Cc3ccccc3)nn2)c2ccccc2C1(O)c1ccsc1` [(R) -5, 1-((1-Benzyl-1H-1,2,3-triazol-4-yl)methyl)-3-hydroxy-3-(thiophen-3-yl)indolin-2-one]: the IC50 in the experiment with SU-DHL-2 (Homo sapiens, SU-DHL-2, 72 h) was greater than 20 µM; in experiment [1] it was 86.4 µM; in the experiment with DOHH-2 (Homo sapiens), greater than 20 µM; in the experiment with VAL it was greater than 20 µM; in the experiment with OCI-LY-10 (setting [3]), greater than 20 µM.

In the case of `O=C1N(Cc2cn(Cc3ccccc3)nn2)c2ccccc2C1(O)c1ccc(F)cc1` [(S) -3, 1-((1-Benzyl-1H-1,2,3-triazol-4-yl)methyl)-3-(4-fluorophenyl)-3-hydroxyindolin-2-one], the 50% inhibitory concentration (IC50) in the experiment with SU-DHL-2 was greater than 20 µM; in experiment [1], 25.9 µM; in the experiment with DOHH-2, greater than 20 µM; with VAL it was greater than 20 µM; with OCI-LY-10 (OCI-LY-10 (ABC-DLBCL)), greater than 20 µM.

In the case of `COc1cccc2c1C(=O)c1c(O)c3c(c(O)c1C2=O)C[C@@](O)(C(=O)CO)C[C@@H]3O[C@H]1C[C@H](N)[C@H](O)[C@H](C)O1` [Dox, doxorubicin], the IC50 in experiment [2] was 65.3 µM.

`O=C1N(Cc2cn(Cc3ccccc3)nn2)c2ccc(Br)cc2C1(O)c1ccccc1` [(R) -7, 1-((1-Benzyl-1H-1,2,3-triazol-4-yl)methyl)-5-bromo-3-hydroxy-3-phenylindolin-2-one]: half-maximal inhibition in experiment [1] (Homo sapiens, SW480, 24 h) (IC50) required 42.5 µM.
